Measured values from patent US8466203B2, “Method of stabilizing human eye tissue by reaction with nitrite and related agents such as nitro compounds” (priority 2006, dated 2013).
Where “and” joins values, the source holds several entries; their conditions need not be identical. Identical values can stand only once. Like-named read-outs stand apart in the source and are kept apart here.

Legend:
[1] = tested on: bovine corneal endothelial cells; details: 48 hrs exposure
[2] = tested on: primary bovine corneal endothelial cells; details: for Cytotoxic threshold (using trypan blue): 48 hrs exposure
[3] = tested on: porcine sclera; test: Yellowing of cross-linked scleral tissue
Procedure: Additional β-nitro alcohols related to 2-nitroethanol were also tested for scleral cross-linking efficacy. In addition to 2-nitroethanol, there was 2-nitro-1-propanol, 3-nitro-2-pentanol, and 2-nitrophenol. […] This effect was not blocked by addition of equimolar urea (Table 5).

[4] = tested on: porcine cornea; test: Gross stiffness of porcine corneal strips handled with a forceps; details: 100 mM, pH 7.4, 37° C., 48 hrs
Procedure: Fresh porcine corneal strips and corneoscleral complexes obtained within 6 hrs of sacrifice and incubated at 37° C. in buffered solutions (pH 7.4) containing 20% Dextran (T500) and either 100 mM NaNO2 or 100 mM of one each of the specified β-nitro alcohols
These images were taken from tissues cross-linked with nitrite and the β-nitro alcohols 2-nitroethanol, 2-nitro-1-propanol, and […], for 48 hrs. […] Fresh porcine corneal strips and corneoscleral complexes were obtained within 6 hrs of sacrifice and incubated at 37° C. in buffered solutions (pH 7.4) containing 20% Dextran (T500) and either 100 mM NaNO2 or 100 mM of one each of the β-nitro alcohols. After 48 hrs, the following images were obtained. […] FIGS. 13 (B and D)

[5] = tested on: human sclera; test: Thermal shrinkage temperature analysis of human scleral strips; details: pH 7.4, 37° C., 96 hrs
From the text: Thermal shrinkage temperature or denaturation temperature (Ts) is a technique that has been used for decades in studying collagen cross-linking. As collagen fibers are progressively heated, a threshold temperature is reached at which point disruption of hydrogen bonding in the collagen molecule triple helix occurs, resulting in unwinding of the triple helices. The denaturation of tertiary protein structure results in a rapid shrinkage of the tissue of up to 80%. This phenomenon can be expressed in various ways including temperature of onset of tissue shrinkage, temperature at maximal tissue shrinkage, and temperature at 50% of maximal tissue shrinkage, for example. In addition, differential scanning calorimetry (DSC) is related to thermal shrinkage temperature analysis and is widely used to evaluate biomaterial cross-linking. Thermal shrinkage temperature is essentially a simplified version of DSC and can be used effectively to screen the cross-linking efficacy of compounds. For the purposes of this study, the onset of shrinkage is considered the Ts and the temperature at which 50% of maximal shrinkage has occurred is T50. Graphs depicting the relationship between degree of shrinkage and temperature indicate differences in degree of cross-linking between groups. Thus, stabilization of collagen fiber structures through non-enzymatic cross-linking increases Ts and T50. A 5° C. upward shift in Ts for the anterior corneal stroma has been shown for the UVR cross-linking method (Spoerl, E., et al., 2004).
A semi-automated system has been developed which increases the efficiency and accuracy of Ts data collection. This system can perform multiple Ts assays in succession, allowing rapid screening of a number of potential cross-linking agents and conditions. […] Inlet and outlet fittings allow for constant circulation of heated water which is modulated by a digitally controlled water bath equipped with a water pump. The entire box is placed on a digital photo scanner connected to a Windows based computer. Beginning at 50° C. the temperature is raised at a rate of 1° C./min and serial scans are taken at every degree increase in temperature up to 80° C. Control pig corneas shrink at approximately 63° C. and cross-linked tissue at higher temperatures. As the tissue shrinks, the images are captured by the scanner. The image files are later analyzed for 2-dimensional area using NIH Image J software and % shrinkage calculations are made using Microsoft Excel for graphing purposes. This method obviates the need for removal of tissue pieces from the water bath with manual micrometer measurements as described by the UVR group (Spoerl, E., et al., 2004). Thus, the labor involved in acquiring data is lessened and the accuracy using image analysis is improved.
Shrinkage temperature (Ts) of porcine cornea (FIG. 16) and porcine and human sclera (FIGS. 17 and 18) cross-linked with 2-nitroethanol. […] Following reaction, thermal shrinkage temperature analysis was performed (Table 4). Several compounds were studied including NaNO2, 2-nitroethanol, 2-nitro-1-propanol, 3-nitro-2-pentanol, 2-nitrophenol, 2-nitroethane, 2-aminoethanol, isopentyl nitrite, DPTA/NO, DETA/NO, and urea, a nitrous acid trap.

O=[N+]([O-])CCO [2-nitroethanol]
Apoptosis (Annexin V) staining ([1]; 0.1 mM): − | Apoptosis (Annexin V) staining ([1]; 0.5 mM): − | Apoptosis (Annexin V) staining ([1]; 0.75 mM): − | Apoptosis (Annexin V) staining ([1]; 1 mM): − | Apoptosis (Annexin V) staining ([1]; 2 mM): − | Apoptosis (Annexin V) staining ([1]; 3 mM): + | Cytotoxic threshold (using trypan blue) ([2]; 0.1 mM): − | Cytotoxic threshold (using trypan blue) ([2]; 0.5 mM): − | Cytotoxic threshold (using trypan blue) ([2]; 0.75 mM): − | Cytotoxic threshold (using trypan blue) ([2]; 1 mM): − | Cytotoxic threshold (using trypan blue) ([2]; 2 mM): − | Cytotoxic threshold (using trypan blue) ([2]; 3 mM): + | Cytotoxic threshold (using trypan blue) ([2]; 5 mM): + | Cytotoxic threshold (using trypan blue) ([2]; 7 mM): + | Cytotoxic threshold (using trypan blue) ([2]; 10 mM): + | tolerable level ([2]; bovine corneal endothelial cells): 0.0273% | highest tolerated level ([2]; bovine corneal endothelial cells, 48 hrs): 2 mM and 3 mM | propensity to induce tissue yellowing [3]: greatest propensity to induce tissue yellowing | stiffness change when handled with a forceps [4]: dramatic stiffness change | T50 (temperature at 50% of maximal shrinkage) ([5]; 1 mM): 66.3 °C | T50 Δ (change in 50% shrinkage temperature compared to control) ([5]; 1 mM): 0.3 °C | Ti (temperature at 1% absolute shrinkage) ([5]; 1 mM): 60.8 °C | T50 (temperature at 50% of maximal shrinkage) ([5]; 10 mM): 68.2 °C | T50 Δ (change in 50% shrinkage temperature compared to control) ([5]; 10 mM): 2.2 °C | Ti (temperature at 1% absolute shrinkage) ([5]; 10 mM): 64.4 °C | T50 (temperature at 50% of maximal shrinkage) ([5]; 100 mM): 73.5 °C | T50 Δ (change in 50% shrinkage temperature compared to control) ([5]; 100 mM): 7.5 °C | Ti (temperature at 1% absolute shrinkage) ([5]; 100 mM): 71.7 °C
